This is an account of results in publication PMC7099768, “A positron emission tomography imaging study to confirm target engagement in the lungs of patients with idiopathic pulmonary fibrosis following a single dose of a novel inhaled αvβ6 integrin inhibitor” (Respiratory Research, 2020).

SMILES strings stand for the structures.

For data set [1] the following is noted: single doses up to 3000 mcg; cited from earlier work.

For the compound `Cc1cc(C)n(-c2cccc([C@H](CC(=O)O)CN3CC[C@@H](CCc4ccc5c(n4)NCCC5)C3)c2)n1` [GSK3008348, (S)-3-(3-(3,5-Dimethyl-1 H-pyrazol-1-yl)phenyl)-4-((R)-3-(2-(5,6,7,8-tetrahydro-1,8-naphthyridin-2-yl)ethyl)pyrrolidin-1-yl) butanoic acid], in data set [1], the “Tolerability in healthy participants” value is “well tolerated”. In addition, where the note is “1000 mcg nebulised, N=5”, the “Diarrhoea, n (%)” value is 0 n (%); the “Headache, n (%)” value is 1 (20) n (%); the “Number of participants with any AE, n (%)” value was 3 (60) n (%); the “Urinary tract infection, n (%)” value is on record as 1 (20) n (%). For the same compound, for the setting “single nebulised 1000 mcg doses”, the “Intensity and treatment relation of AEs” value is “All AEs were mild in intensity and none were considered treatment related”.
